ChEMBL document CHEMBL4706508, “Discovery of first-in-class multi-target adenosine A receptor antagonists-carbonic anhydrase IX and XII inhibitors. 8-Amino-6-aryl-2-phenyl-1,2,4-triazolo [4,3-a]pyrazin-3-one derivatives as new potential antitumor agents” (Eur J Med Chem, 2020)

Key:
Carbonic anhydrase 1 = Carbonic anhydrase 1 (Homo sapiens, UniProt P00915); assay: Inhibition of human CA1 incubated for 15 mins by stopped- flow CO2 hydrase assay method
Carbonic anhydrase 12 = Carbonic anhydrase 12 (Homo sapiens, UniProt O43570); assay: Inhibition of human CA12 incubated for 15 mins by stopped- flow CO2 hydrase assay method
Chain of Carbonic anhydrase 12 (O43570 whole entry): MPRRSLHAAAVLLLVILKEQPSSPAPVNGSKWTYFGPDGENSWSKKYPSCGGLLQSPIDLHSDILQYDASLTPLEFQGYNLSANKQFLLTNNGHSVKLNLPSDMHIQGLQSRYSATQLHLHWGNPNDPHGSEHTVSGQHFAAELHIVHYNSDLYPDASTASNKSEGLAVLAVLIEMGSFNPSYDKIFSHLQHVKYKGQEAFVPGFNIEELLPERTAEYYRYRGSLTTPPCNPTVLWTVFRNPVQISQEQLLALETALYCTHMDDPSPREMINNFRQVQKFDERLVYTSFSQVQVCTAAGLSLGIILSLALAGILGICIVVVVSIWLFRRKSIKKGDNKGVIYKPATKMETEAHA

Adenosine receptor A2b = molecular target: T1, Adenosine receptor A2b (Homo sapiens, UniProt P29275); assay: Antagonist activity at human A2B receptor expressed in CHO cell membrane assessed as reduction in NECA-[…] level by GloSensor CAMP assay; assay type: cell membranes
T1 sequence (P29275 whole entry): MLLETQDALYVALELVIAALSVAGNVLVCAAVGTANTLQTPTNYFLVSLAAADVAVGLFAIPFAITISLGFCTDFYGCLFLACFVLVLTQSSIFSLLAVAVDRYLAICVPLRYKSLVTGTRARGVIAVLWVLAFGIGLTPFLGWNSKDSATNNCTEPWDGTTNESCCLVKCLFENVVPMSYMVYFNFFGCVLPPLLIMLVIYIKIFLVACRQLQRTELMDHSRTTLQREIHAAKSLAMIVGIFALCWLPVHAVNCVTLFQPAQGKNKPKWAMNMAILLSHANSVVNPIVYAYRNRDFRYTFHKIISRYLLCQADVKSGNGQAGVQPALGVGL

Carbonic anhydrase 9 = Carbonic anhydrase 9 (Homo sapiens, UniProt Q16790); assay: Inhibition of human CA9 incubated for 15 mins by stopped- flow CO2 hydrase assay method
Carbonic anhydrase 2 = Carbonic anhydrase 2 (Homo sapiens, UniProt P00918); assay: Inhibition of human CA2 incubated for 15 mins by stopped- flow CO2 hydrase assay method
Adenosine receptor A1 = molecular target: T2, Adenosine receptor A1 (Homo sapiens, UniProt P30542); assay: Displacement of [3H]-CCPA from human A1 receptor stably expressed in CHO cell membranes by radioligand competitive binding assay; set-up: species or system Cell membrane
T2 sequence (P30542 whole entry): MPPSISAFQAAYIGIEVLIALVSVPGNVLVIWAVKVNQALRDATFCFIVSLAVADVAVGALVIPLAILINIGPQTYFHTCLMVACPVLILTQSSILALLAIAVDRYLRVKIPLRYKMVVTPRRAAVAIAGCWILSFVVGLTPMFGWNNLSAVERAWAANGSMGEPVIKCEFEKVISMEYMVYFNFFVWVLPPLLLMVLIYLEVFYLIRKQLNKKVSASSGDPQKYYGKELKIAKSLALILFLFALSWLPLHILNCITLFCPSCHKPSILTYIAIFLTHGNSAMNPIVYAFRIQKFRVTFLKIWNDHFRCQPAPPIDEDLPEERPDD

Adenosine receptor A3 = molecular target: T3, Adenosine receptor A3 (Homo sapiens, UniProt P0DMS8); assay: Displacement of [3H]-HEMADO from human A3 receptor stably expressed in CHO cell membranes by radioligand competitive binding assay; set-up: species or system Cell membrane
T3 sequence (P0DMS8 whole entry): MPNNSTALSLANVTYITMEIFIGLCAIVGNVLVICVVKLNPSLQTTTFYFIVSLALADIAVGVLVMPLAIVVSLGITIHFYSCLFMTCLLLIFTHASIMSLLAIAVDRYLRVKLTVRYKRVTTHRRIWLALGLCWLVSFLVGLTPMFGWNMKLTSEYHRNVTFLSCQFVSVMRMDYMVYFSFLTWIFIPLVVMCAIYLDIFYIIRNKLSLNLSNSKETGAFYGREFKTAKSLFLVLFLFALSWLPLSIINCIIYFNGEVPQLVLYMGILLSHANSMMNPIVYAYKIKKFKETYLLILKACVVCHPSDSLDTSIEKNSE

Adenosine receptor A2a = Adenosine receptor A2a (Homo sapiens, UniProt P29274); assay: Displacement of [3H]-NECA from human A2A receptor stably expressed in CHO cell membranes by radioligand competitive binding assay; set-up: species or system Cell membrane
Chain of Adenosine receptor A2a (P29274 whole entry): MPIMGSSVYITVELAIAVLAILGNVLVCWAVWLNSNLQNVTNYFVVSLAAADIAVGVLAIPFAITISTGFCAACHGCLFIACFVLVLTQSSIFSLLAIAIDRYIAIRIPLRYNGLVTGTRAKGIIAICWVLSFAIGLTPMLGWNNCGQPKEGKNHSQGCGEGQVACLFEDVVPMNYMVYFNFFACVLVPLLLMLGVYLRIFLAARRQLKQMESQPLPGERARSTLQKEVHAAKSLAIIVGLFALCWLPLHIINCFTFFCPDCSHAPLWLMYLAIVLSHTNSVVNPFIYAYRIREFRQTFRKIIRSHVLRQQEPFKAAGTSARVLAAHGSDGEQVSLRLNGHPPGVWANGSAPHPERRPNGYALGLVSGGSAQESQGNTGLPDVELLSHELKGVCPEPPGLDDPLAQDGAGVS

Chain of Carbonic anhydrase 1 (P00915 whole entry): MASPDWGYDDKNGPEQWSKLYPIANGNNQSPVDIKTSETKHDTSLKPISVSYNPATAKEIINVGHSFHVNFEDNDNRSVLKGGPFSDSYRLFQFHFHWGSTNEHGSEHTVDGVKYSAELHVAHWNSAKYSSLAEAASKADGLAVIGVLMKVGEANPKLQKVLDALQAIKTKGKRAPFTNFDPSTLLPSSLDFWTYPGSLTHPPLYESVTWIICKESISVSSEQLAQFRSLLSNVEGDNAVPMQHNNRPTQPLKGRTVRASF

| Compound | Ki (Carbonic anhydrase 1) | Ki (Carbonic anhydrase 12) | IC50 (Adenosine receptor A2b) | Ki (Carbonic anhydrase 9) | Ki (Carbonic anhydrase 2) | Ki (Adenosine receptor A1) | Ki (Adenosine receptor A3) | Ki (Adenosine receptor A2a) |
| --- | --- | --- | --- | --- | --- | --- | --- | --- |
| Nc1nc(-c2cccc(O)c2)cn2c(=O)n(-c3ccccc3)nc12 | > 100 µM | > 100 µM | > 30 µM | > 100 µM | 93 µM |  |  |  |
| Nc1nc(-c2ccc(O)cc2)cn2c(=O)n(-c3ccccc3)nc12 | > 100 µM | > 100 µM | > 30 µM | > 100 µM | > 100 µM |  |  |  |
| Nc1nc(-c2ccc(S(N)(=O)=O)cc2)cn2c(=O)n(-c3ccccc3)nc12 | 8.02 µM | 0.602 µM | > 30 µM | 8.92 µM | 0.703 µM | 0.205 µM | 14.8 µM | 0.857 µM |
| Nc1nc(-c2ccc(NC(=O)c3ccc(O)c(O)c3)cc2)cn2c(=O)n(-c3ccccc3)nc12 | > 100 µM | > 100 µM | > 30 µM | 44.3 µM | 31.7 µM | 0.546 µM | 1.25 µM | 0.009 µM |
| Nc1nc(-c2ccc(NC(=O)CCNC(=O)c3cccc(S(N)(=O)=O)c3)cc2)cn2c(=O)n(-c3ccccc3)nc12 | 7.28 µM | 0.83 µM | > 30 µM | 6.92 µM | 0.341 µM | 0.418 µM | > 30 µM | 0.0092 µM |
| Nc1nc(-c2ccc(NC(=O)c3ccc(C(=O)NO)cc3)cc2)cn2c(=O)n(-c3ccccc3)nc12 | > 100 µM | > 100 µM | > 30 µM | > 100 µM | 63 µM | 0.395 µM | 0.546 µM | 0.036 µM |
| Nc1nc(-c2ccc(OCCNCCc3ccc(S(N)(=O)=O)cc3)cc2)cn2c(=O)n(-c3ccccc3)nc12 | 0.973 µM | 0.795 µM | > 30 µM | 9.46 µM | 0.934 µM | 0.283 µM | 7.01 µM | 0.0879 µM |
| CN(C)c1nc(-c2ccc(S(N)(=O)=O)cc2)cn2c(=O)n(-c3ccccc3)nc12 | 2.09 µM | 0.358 µM | > 30 µM | 6.73 µM | 0.464 µM | 0.435 µM | 19.5 µM | 3.89 µM |
| Nc1nc(-c2ccc(NC(=O)c3ccc(C(=O)O)cc3)cc2)cn2c(=O)n(-c3ccccc3)nc12 | > 100 µM | > 100 µM | > 30 µM | > 100 µM | > 100 µM | 2.37 µM | > 30 µM | 0.0812 µM |
| Nc1nc(-c2ccc(NC(=O)CCNC(=O)c3ccc(S(N)(=O)=O)cc3)cc2)cn2c(=O)n(-c3ccccc3)nc12 | 0.0515 µM | 0.027 µM | > 30 µM | 0.005 µM | 0.0086 µM | 1.07 µM | > 30 µM |  |
| Nc1nc(-c2ccc(NC(=O)c3cccc(S(N)(=O)=O)c3)cc2)cn2c(=O)n(-c3ccccc3)nc12 | 2.29 µM | 0.303 µM | > 30 µM | 0.81 µM | 0.367 µM | 1.21 µM | > 30 µM | 0.0135 µM |
| Nc1nc(-c2ccc(NCc3ccc(S(N)(=O)=O)cc3)cc2)cn2c(=O)n(-c3ccccc3)nc12 | 0.57 µM | 0.625 µM | > 30 µM | 5.97 µM | 0.897 µM | 0.0877 µM | > 30 µM | 0.0279 µM |
| COc1ccc(C(=O)Nc2ccc(-c3cn4c(=O)n(-c5ccccc5)nc4c(N)n3)cc2)cc1 | > 100 µM | > 100 µM | > 30 µM | > 100 µM | > 100 µM | 0.418 µM | 0.279 µM | 0.0007 µM |
| Nc1nc(-c2ccc(NCC(=O)c3ccc(S(N)(=O)=O)cc3)cc2)cn2c(=O)n(-c3ccccc3)nc12 | 0.589 µM | 0.0257 µM | > 30 µM | 9.45 µM | 0.246 µM | 0.131 µM | 6.76 µM | 0.026 µM |
| Nc1nc(-c2ccccc2O)cn2c(=O)n(-c3ccccc3)nc12 | > 100 µM | > 100 µM | > 30 µM | > 100 µM | 19 µM |  |  |  |
| Nc1nc(-c2ccc(NC(=O)CCC(=O)O)cc2)cn2c(=O)n(-c3ccccc3)nc12 | > 100 µM | > 100 µM | > 30 µM | > 100 µM | > 100 µM | 2.3 µM | 6.96 µM | 0.573 µM |
| CCOC(=O)c1ccc(C(=O)Nc2ccc(-c3cn4c(=O)n(-c5ccccc5)nc4c(N)n3)cc2)cc1 | > 100 µM | > 100 µM | > 30 µM | > 100 µM | > 100 µM | 7.48 µM | > 30 µM | 1.36 µM |
| Nc1nc(-c2ccc(OCCNC(=O)c3ccc(S(N)(=O)=O)cc3)cc2)cn2c(=O)n(-c3ccccc3)nc12 | 0.934 µM | 0.528 µM | > 30 µM | 5.95 µM | 0.183 µM | 0.42 µM | 6.65 µM | 0.0068 µM |
| CCOC(=O)CNc1ccc(-c2cn3c(=O)n(-c4ccccc4)nc3c(N)n2)cc1 | > 100 µM | > 100 µM | > 30 µM | > 100 µM | > 100 µM | 0.771 µM | > 30 µM | 6.3 µM |
| COc1ccc(C(=O)Nc2ccc(-c3cn4c(=O)n(-c5ccccc5)nc4c(N)n3)cc2)cc1OC | > 100 µM | > 100 µM | > 30 µM | > 100 µM | > 100 µM | 0.0988 µM | > 30 µM | 0.0206 µM |
| Nc1nc(-c2ccc(NC(=O)CCNCCc3ccc(S(N)(=O)=O)cc3)cc2)cn2c(=O)n(-c3ccccc3)nc12 | 8.71 µM | 0.000263 µM | > 30 µM | 0.109 µM | 0.526 µM | 1.03 µM | 5.83 µM | 0.0106 µM |
| Nc1nc(-c2ccc(NC(=O)c3ccc(S(N)(=O)=O)cc3)cc2)cn2c(=O)n(-c3ccccc3)nc12 | 8.35 µM | 0.006 µM | > 30 µM | 0.466 µM | 0.046 µM | 4.19 µM | > 30 µM |  |
| Nc1nc(-c2ccc(NC(=O)CCNCc3ccc(S(N)(=O)=O)cc3)cc2)cn2c(=O)n(-c3ccccc3)nc12 | 9 µM | 0.0415 µM | > 30 µM | 0.319 µM | 6.76 µM | 0.839 µM | > 30 µM | 0.0963 µM |
| Nc1nc(-c2ccc(NC(=O)c3ccc(O)cc3)cc2)cn2c(=O)n(-c3ccccc3)nc12 | > 100 µM | 4.4 µM | > 30 µM | > 100 µM | 47.3 µM | 0.194 µM | 1.07 µM | 0.0412 µM |
